The values below are quoted from earlier work in paper PMC3238097 (Journal of the American Chemical Society, 2011).

For the substance naphthalene-diphenylalanine-glucosamine, the hydrogel formation result is on record as “fails to form hydrogel properly”.
